Data on four compounds can be found in paper PMC10145610, “In Vitro and In Silico Investigation of Polyacetylenes from Launaea capitata (Spreng.) Dandy as Potential COX-2, 5-LOX, and BchE Inhibitors” (Molecules, 2023).

One experiment deals with T1, COX-2 (Homo sapiens, UniProt P35354).
T1 construct: purchased BioVision K547-100
T1 sequence (P35354 18-604): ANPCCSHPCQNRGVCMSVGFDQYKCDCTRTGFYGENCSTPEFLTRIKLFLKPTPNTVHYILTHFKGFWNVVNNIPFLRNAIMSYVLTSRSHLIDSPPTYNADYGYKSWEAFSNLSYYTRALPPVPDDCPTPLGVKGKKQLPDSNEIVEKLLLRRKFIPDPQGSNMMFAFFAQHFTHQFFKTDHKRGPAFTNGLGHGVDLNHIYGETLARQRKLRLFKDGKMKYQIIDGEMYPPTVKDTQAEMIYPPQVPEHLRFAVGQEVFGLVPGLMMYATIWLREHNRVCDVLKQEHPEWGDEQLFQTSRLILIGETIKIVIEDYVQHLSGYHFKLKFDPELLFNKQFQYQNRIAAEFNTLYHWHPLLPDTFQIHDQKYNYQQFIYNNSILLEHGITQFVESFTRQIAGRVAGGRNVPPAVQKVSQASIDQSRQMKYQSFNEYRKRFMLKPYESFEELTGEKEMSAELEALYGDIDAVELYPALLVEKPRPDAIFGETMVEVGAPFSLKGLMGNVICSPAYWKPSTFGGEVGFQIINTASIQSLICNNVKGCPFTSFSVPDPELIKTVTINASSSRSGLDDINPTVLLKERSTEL
As to the kind of experiment: COX-2 inhibition assay (fluorometric inhibitor screening kit). It is filed as biochemical. As to the method:
The fluorometric approach was used to measure the in vitro cyclooxygenase (COX-2) inhibitory activity. It was carried out in accordance with the COX-2 Inhibitor Screening Kit methodology, as advised by the manufacturer (CAT # K547-100, BioVision, Milpitas, CA, USA). The sample solutions were prepared in the manner described before providing twelve concentrations (ranging from […]).
(§1) The IC50 values were represented as means (± SD) from triplicates of two independent experiments.

Experiment [1] has as its target T2, horse serum butyrylcholinesterase (Equine BchE) (Equus caballus, UniProt P81908).
T2 construct: using horse serum butyrylcholinesterase (Equine BchE; CAS#9001-08-5); tissue CAS#9001-08-5; host or cells: horse serum
As to the kind of experiment: BchE inhibition assay. It is filed as biochemical. As to the method: The in vitro butyrylcholinesterase (BchE) inhibitory activity of the isolated polyacetylenes was determined according to the published method, using horse serum butyrylcholinesterase (Equine BchE; CAS#9001-08-5) with a slight change. To create a useful stock solution, the materials were dissolved in DMSO. The maximal DMSO concentration was 0.1%, and twelve sample concentrations (ranging from […]) were created by two-fold serial dilution in Tris buffer (pH 8.0).
as §1

Experiment [2] has as its target T3, 5-LOX (Homo sapiens, UniProt P09917).
T3 construct: purchased BioVision K980-100
T3 sequence (P09917 1-674): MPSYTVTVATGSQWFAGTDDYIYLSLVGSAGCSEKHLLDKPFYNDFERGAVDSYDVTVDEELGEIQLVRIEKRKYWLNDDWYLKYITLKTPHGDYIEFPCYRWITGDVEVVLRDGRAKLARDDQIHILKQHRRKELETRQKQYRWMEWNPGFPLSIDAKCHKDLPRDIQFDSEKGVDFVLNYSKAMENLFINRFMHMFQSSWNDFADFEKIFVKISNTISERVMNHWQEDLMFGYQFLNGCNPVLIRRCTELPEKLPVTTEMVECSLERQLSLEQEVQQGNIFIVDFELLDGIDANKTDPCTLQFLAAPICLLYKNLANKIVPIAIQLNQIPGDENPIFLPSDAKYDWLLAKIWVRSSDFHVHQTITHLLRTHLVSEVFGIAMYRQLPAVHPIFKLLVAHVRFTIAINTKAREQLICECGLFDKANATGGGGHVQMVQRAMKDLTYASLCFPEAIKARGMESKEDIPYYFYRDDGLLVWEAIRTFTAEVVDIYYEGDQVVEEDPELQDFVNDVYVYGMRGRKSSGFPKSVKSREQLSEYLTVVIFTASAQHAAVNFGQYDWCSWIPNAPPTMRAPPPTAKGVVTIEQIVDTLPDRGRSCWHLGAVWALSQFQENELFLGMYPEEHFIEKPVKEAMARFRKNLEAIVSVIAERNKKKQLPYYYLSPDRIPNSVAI
As to the kind of experiment: 5-LOX inhibition assay (fluorometric inhibitor screening kit). It is filed as biochemical. The method, then: The fluorometric approach was used to test the 5-LOX enzyme, in accordance with the manufacturer’s instructions, by using the enzyme’s inhibitor screening kit (CAT # K980-100, BioVision, Milpitas, CA, USA) to evaluate the 5-lipoxygenase (5-LOX) inhibitory activity in vitro [18, 45, 46]. Twelve concentrations (ranging from […]) were prepared by serial dilution method.
as §1

The subject of a further experiment is COX-1. The settings on record: read-out: inhibitory activity against COX-1; cited from earlier work.
The target of experiment [3] is T3, 5-LOX. The conditions noted are these: read-out: inhibitory activity against 5-LOX; cited from earlier work.

Read-outs that look alike come from different tables or passages of the source.

T2 sequence (P81908 whole entry): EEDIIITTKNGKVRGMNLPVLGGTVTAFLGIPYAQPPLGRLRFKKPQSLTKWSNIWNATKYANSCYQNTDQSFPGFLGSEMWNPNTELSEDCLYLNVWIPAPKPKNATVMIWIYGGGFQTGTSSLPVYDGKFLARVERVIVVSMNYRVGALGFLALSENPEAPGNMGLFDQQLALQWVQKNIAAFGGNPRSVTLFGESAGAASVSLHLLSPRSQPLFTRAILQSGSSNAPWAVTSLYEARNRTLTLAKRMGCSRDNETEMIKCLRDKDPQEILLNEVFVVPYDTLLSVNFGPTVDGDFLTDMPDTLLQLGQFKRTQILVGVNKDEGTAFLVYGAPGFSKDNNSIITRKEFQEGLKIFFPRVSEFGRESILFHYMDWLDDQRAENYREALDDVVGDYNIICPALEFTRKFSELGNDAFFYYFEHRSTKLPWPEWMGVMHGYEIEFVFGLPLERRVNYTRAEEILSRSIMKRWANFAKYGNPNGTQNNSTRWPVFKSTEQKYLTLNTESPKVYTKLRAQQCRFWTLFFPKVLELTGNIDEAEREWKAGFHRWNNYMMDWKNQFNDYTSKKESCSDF

Take `C/C=C/C#CC#C/C=C/CC[C@H](O)CCO` [Compound 2, (3S)-(6E,12E)-tetradecadiene-8,10-diyne-1,3-diol]: the IC50 was > 200 µM on COX-2, 179 ± 15.6 µM in experiment [1] and > 200 µM against 5-LOX [2]. Further, the “IC50 against COX-2” value against COX-2 (in vitro, mean ± SD, triplicates of two independent experiments) is “inactive”.

In the case of `C/C=C/C#CC#C/C=C/C=C\CCOC(=O)/C=C/c1ccc(O)c(OC)c1` [(3Z,5E,11E)-tridecatriene-7,9-diynyl-1-O-(E)-ferulate], the IC50 in the experiment with COX-1 is 1.1 µM; at 5-LOX [3], 3.4 µM.

In the case of `CC(Cc1ccc(O)c(O)c1)C(C)Cc1ccc(O)c(O)c1` (stereo not shown) [NDGA, nordihydroguaiaretic acid, reference compound], at COX-2 (in vitro, mean ± SD, triplicates of two independent experiments, read-out: IC50 against COX-2), the IC50 turned out to be 4.7 ± 0.76 µM.

For the compound `C/C=C/C#CC#C/C=C/CC[C@@H](CCO)O[C@@H]1O[C@H](CO)[C@@H](O)[C@H](O)[C@H]1O` [Compound 4, (3S)-(6E,12E)-tetradecadiene-8,10-diyne-1-ol-3-O-β-D-glucopyranoside], the IC50 against COX-2 was 146 ± 7.7 µM; in experiment [1] it was 14.8 ± 1.55 µM; at 5-LOX [2] it was 34.6 ± 4.26 µM.
